ChEMBL document CHEMBL4033684, “Development of nonsteroidal glucocorticoid receptor modulators based on N-benzyl-N-(4-phenoxyphenyl)benzenesulfonamide scaffold” (Bioorg Med Chem, 2017)
pIC50: −log10 of the molar value. Calls of active or inactive are those of the source. No cut-off for these calls is given here.

What was measured:
Format in all cases: cell-based
[1] = biological target: T1, Glucocorticoid receptor (Homo sapiens) (UniProt P04150); test: Antagonist activity at human GRalpha expressed in HEK293 cells assessed as inhibition of dexamethasone-induced response at 30 uM after 24 hrs by luciferase reporter gene assay relative to control
T1 sequence (whole entry): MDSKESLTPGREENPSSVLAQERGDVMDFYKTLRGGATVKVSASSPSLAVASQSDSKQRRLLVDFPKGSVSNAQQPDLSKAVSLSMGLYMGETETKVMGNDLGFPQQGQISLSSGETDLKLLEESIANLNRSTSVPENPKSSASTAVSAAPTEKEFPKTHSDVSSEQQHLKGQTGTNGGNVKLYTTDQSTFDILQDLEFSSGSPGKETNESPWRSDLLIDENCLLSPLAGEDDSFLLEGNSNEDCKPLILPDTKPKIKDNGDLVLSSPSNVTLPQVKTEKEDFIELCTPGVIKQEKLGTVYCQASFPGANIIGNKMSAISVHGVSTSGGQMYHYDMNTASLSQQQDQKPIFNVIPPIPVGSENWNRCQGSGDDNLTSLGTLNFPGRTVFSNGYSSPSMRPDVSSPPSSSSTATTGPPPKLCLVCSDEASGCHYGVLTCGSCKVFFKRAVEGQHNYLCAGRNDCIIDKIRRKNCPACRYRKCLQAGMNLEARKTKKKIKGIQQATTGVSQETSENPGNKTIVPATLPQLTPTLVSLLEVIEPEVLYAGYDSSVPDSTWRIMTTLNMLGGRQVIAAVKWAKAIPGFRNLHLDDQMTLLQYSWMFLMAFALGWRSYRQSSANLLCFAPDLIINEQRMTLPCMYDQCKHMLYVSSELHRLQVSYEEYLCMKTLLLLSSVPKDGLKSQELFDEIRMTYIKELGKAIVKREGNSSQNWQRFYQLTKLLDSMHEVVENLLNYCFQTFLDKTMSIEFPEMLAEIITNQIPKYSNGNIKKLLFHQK

[2] = biological target: T2, Glucocorticoid receptor (Homo sapiens, UniProt P04150); test: (§1) Antagonist activity at human GRalpha expressed in HEK293 cells assessed as inhibition of dexamethasone-induced response after 24 hrs by luciferase reporter gene assay
T2 sequence (P04150 whole entry): T1 sequence (whole entry)

[3] = biological target: T2, Glucocorticoid receptor; test: Transactivation of human GRalpha expressed in HEK293 cells after 24 hrs by luciferase reporter gene assay; settings: hek293, 24 h
[4] = biological target: T1, Glucocorticoid receptor (Homo sapiens); test: Transrepression of human GRalpha expressed in HEK293 cells co-expressing pGL4.32 assessed as inhibition of TNFalpha-stimulated NF-kB activity at 30 uM preincubated for 4 hrs followed by TNFalpha addition measured after 3 hrs by luciferase reporter gene assay relative to control
[5] = biological target: T1, Glucocorticoid receptor (Homo sapiens); test: as §1

| inhibition [1] | pIC50 [2] | Activity [3] | inhibition [4] | inhibition [5] | Compound |
| --- | --- | --- | --- | --- | --- |
| < 50% | < 4.52 | Not Active | – | – | N#Cc1ccc(S(=O)(=O)N(Cc2ccc(F)cc2)c2ccc(Oc3ccccc3)cc2)cc1 |
| – | – | Not Active | 46% | – | Nc1ccccc1S(=O)(=O)N(Cc1ccccc1)c1ccc(Oc2ccccc2)cc1 |
| – | 5.62 | Not Active | – | – | O=S(=O)(c1ccc(Cl)cc1)N(Cc1ccccc1)c1ccc(Oc2ccccc2)cc1 |
| – | 5.73 | Not Active | – | – | COc1ccc(S(=O)(=O)N(Cc2ccccc2)c2ccc(Oc3ccccc3)cc2)cc1 |
| inactive | – | Not Active | – | – | COc1ccc(CN(c2ccc(Oc3ccccc3)cc2)S(=O)(=O)c2ccc(C#N)cc2)cc1 |
| < 50% | < 4.52 | Not Active | – | – | N#Cc1ccc(S(=O)(=O)N(Cc2ccc3ccccc3c2)c2ccc(Oc3ccccc3)cc2)cc1 |
| < 50% | < 4.52 | Not Active | – | – | N#Cc1ccc(S(=O)(=O)N(CCCc2ccccc2)c2ccc(Oc3ccccc3)cc2)cc1 |
| inactive | – | Not Active | – | – | COc1cccc(Oc2ccc(N(Cc3ccccc3)S(=O)(=O)c3ccc(C#N)cc3)cc2)c1 |
| < 50% | < 4.52 | Not Active | – | – | O=S(=O)(c1ccc(Br)cc1)N(Cc1ccccc1)c1ccc(Oc2ccccc2)cc1 |
| < 50% | < 4.52 | Not Active | – | – | N#Cc1ccc(S(=O)(=O)N(CCc2ccccc2)c2ccc(Oc3ccccc3)cc2)cc1 |
| < 50% | < 4.52 | Not Active | – | – | N#Cc1ccccc1S(=O)(=O)N(Cc1ccccc1)c1ccc(Oc2ccccc2)cc1 |
| – | 5.24 | Not Active | – | – | O=[N+]([O-])c1ccc(S(=O)(=O)N(Cc2ccccc2)c2ccc(Oc3ccccc3)cc2)cc1 |
| – | – | Not Active | inactive | – | CCNc1ccc(S(=O)(=O)N(Cc2ccccc2)c2ccc(Oc3ccccc3)cc2)cc1 |
| < 50% | < 4.52 | Not Active | – | – | CC(C)(C)c1ccc(S(=O)(=O)N(Cc2ccccc2)c2ccc(Oc3ccccc3)cc2)cc1 |
| – | 5.44 | Not Active | – | – | O=S(=O)(c1ccccc1)N(Cc1ccccc1)c1ccc(Oc2ccccc2)cc1 |
| – | 5.71 | Not Active | 60% | – | CC(=O)Nc1ccc(S(=O)(=O)N(Cc2ccccc2)c2ccc(Oc3ccccc3)cc2)cc1 |
| inactive | – | Not Active | – | – | CC(C)(C)c1ccc(CN(c2ccc(Oc3ccccc3)cc2)S(=O)(=O)c2ccc(C#N)cc2)cc1 |
| – | – | Not Active | inactive | – | CCN(CC)c1ccc(S(=O)(=O)N(Cc2ccccc2)c2ccc(Oc3ccccc3)cc2)cc1 |
| < 50% | < 4.52 | Not Active | – | – | COc1ccc(Oc2ccc(N(Cc3ccccc3)S(=O)(=O)c3ccc(C#N)cc3)cc2)cc1 |
| – | 5.68 | Not Active | 32% | – | COC(=O)Nc1ccc(S(=O)(=O)N(Cc2ccccc2)c2ccc(Oc3ccccc3)cc2)cc1 |

| inhibition [1] | pIC50 [2] | Activity [3] | inhibition [4] | inhibition [5] | Compound |
| --- | --- | --- | --- | --- | --- |
| – | – | Not Active | inactive | – | CNc1ccc(S(=O)(=O)N(Cc2ccccc2)c2ccc(Oc3ccccc3)cc2)cc1 |
| inactive | – | Not Active | – | – | COc1ccccc1Oc1ccc(N(Cc2ccccc2)S(=O)(=O)c2ccc(C#N)cc2)cc1 |
| – | 5.10 | Not Active | – | – | N#Cc1ccc(S(=O)(=O)N(Cc2ccc(Br)cc2)c2ccc(Oc3ccccc3)cc2)cc1 |
| – | 5.27 | Not Active | – | – | N#Cc1ccc(S(=O)(=O)N(Cc2cccc(Cl)c2)c2ccc(Oc3ccccc3)cc2)cc1 |
| – | 5.13 | Not Active | – | – | O=S(=O)(c1ccc(OC(F)(F)F)cc1)N(Cc1ccccc1)c1ccc(Oc2ccccc2)cc1 |
| – | – | Not Active | 39% | – | Nc1cccc(S(=O)(=O)N(Cc2ccccc2)c2ccc(Oc3ccccc3)cc2)c1 |
| – | 4.93 | Not Active | – | – | O=S(=O)(Nc1ccc(Oc2ccccc2)cc1)c1cccc(C(F)(F)F)c1 |
| – | 5.69 | Not Active | – | – | O=S(=O)(c1ccc(F)cc1)N(Cc1ccccc1)c1ccc(Oc2ccccc2)cc1 |
| < 50% | < 4.52 | Not Active | – | – | O=S(=O)(c1ccc(C(F)(F)F)cc1)N(Cc1ccccc1)c1ccc(Oc2ccccc2)cc1 |
| – | – | Not Active | inactive | – | CN(C)c1ccc(S(=O)(=O)N(Cc2ccccc2)c2ccc(Oc3ccccc3)cc2)cc1 |
| < 50% | < 4.52 | Not Active | – | – | N#Cc1ccc(S(=O)(=O)N(Cc2ccc(Cl)cc2)c2ccc(Oc3ccccc3)cc2)cc1 |
| < 50% | < 4.52 | Not Active | – | – | O=S(=O)(c1ccc(S(F)(F)(F)(F)F)cc1)N(Cc1ccccc1)c1ccc(Oc2ccccc2)cc1 |
| < 50% | < 4.52 | Not Active | – | – | Cc1ccc(CN(c2ccc(Oc3ccccc3)cc2)S(=O)(=O)c2ccc(C#N)cc2)cc1 |
| inactive | – | Not Active | – | – | N#Cc1cccc(S(=O)(=O)N(Cc2ccccc2)c2ccc(Oc3ccccc3)cc2)c1 |
| inactive | – | Not Active | – | – | N#Cc1ccc(S(=O)(=O)N(CC2CC2)c2ccc(Oc3ccccc3)cc2)cc1 |
| – | – | Not Active | – | inactive | COc1cccc(C(=O)Nc2ccc(Oc3ccc(O)cc3)c(C)c2)c1 |
| – | 5.69 | Not Active | – | – | Cc1ccc(S(=O)(=O)N(Cc2ccccc2)c2ccc(Oc3ccccc3)cc2)cc1 |
| < 50% | < 4.52 | Not Active | – | – | N#Cc1ccc(S(=O)(=O)N(Cc2cccc3ccccc23)c2ccc(Oc3ccccc3)cc2)cc1 |
| – | 5.50 | Not Active | 64% | – | Nc1ccc(S(=O)(=O)N(Cc2ccccc2)c2ccc(Oc3ccccc3)cc2)cc1 |
| – | < 4.52 | Not Active | – | – | N#Cc1ccc(S(=O)(=O)N(Cc2ccccc2Cl)c2ccc(Oc3ccccc3)cc2)cc1 |
